# Source: US11390922B2, “C-CBL mutations and uses thereof” (University of Chicago, priority 2010, dated 2022)
# “Also recorded” adds a separate entry of the source.
# Legend:
# [1] = tested on: A549 cells; experiment: Cell survival of c-CBL wild type and mutant transfectants after treatment with c-Met and EGFR inhibitors (cell counting); assay type: cell-based, Human; settings: for sensitivity (cell survival) of c-CBL mutant versus wild type c-CBL transfected cells: A549 cells transiently transfected with c-CBL WT or mutants SH, Q, V, W*, different concentrations, 48 h treatment
# Experimental: A549 and H226 cells were transiently transfected with empty vector (EV) or c-CBL wild type (WT) and mutants' constructs (SH: S80N/H94Y, Q: Q249E, V: V391I, W*: W802*). At 24 h, cells were recollected and seeded 5×10^4 cells/well in 24 well culture plate. Another 24 h, cells were treated with c-Met inhibitor SU11274 and EGFR inhibitor Tarceva in different concentrations. Cell survival was detected by cell counting after 48 h treatment.
# [2] = tested on: EGFR; settings: refractory advanced NSCLC; cited from earlier work
# [3] = tested on: Met kinase; settings: cited from earlier work
# [4] = tested on: H358 NSCLC cells; experiment: MTT assay of live cells after drug treatment of H358 cells with c-CBL knockdown; assay type: cell-based; settings: H358 clone 27 cells, 72 h after drug treatment
# Experimental: H358 clone 27 cells expressing high levels of c-CBL were knocked down using a lentiviral construct (sh 27). Cells were treated with the indicated RTK inhibitors, PI-3K inhibitors or cisplatin (CDDP). Live cells were assessed 72 h after drug treatment using a MTT assay.
# The effects of silencing wt c-CBL in combination with a variety of drugs that inhibit EGFR (erlotinib [Tarceva]), PI-3K (NVP, Wortmanin), MET (SU11274) on the growth of H358 NSCLC cells that endogenously express c-CBL-Wt were investigated. The H358 cells, which expressed high levels of c-CBL, were knocked down using a lentiviral construct (sh 27, directed against c-CBL-Wt in H358 clone 27 cells (black), or the sh SCR scrambled RNA control (white)). Cells were treated with RTK and P1-3K inhibitors, cisplatin (CDDP). Live cells were assessed 72 hours after drug treatment using an MTT assay.
SMILES,sensitivity (cell survival) of c-CBL mutant versus wild type c-CBL transfected cells [1],response to EGFR blockade [2],"sensitivity of A549 cells containing c-CBL mutants versus wild type c-CBL ([1]; 1 μM SU11274, mutants S80N/H94Y, Q249E, V391I, W802* (FIG. 23))","cell growth, cell cycle and apoptosis [3]",Met kinase autophosphorylation ([3]; sites important for PI3K and Ras pathway activation),live cells: c-CBL-Wt knockdown (sh 27) versus scrambled shRNA control [4]
"C#Cc1cccc(Nc2ncnc3cc(OCCOC)c(OCCOC)cc23)c1 [Tarceva, erlotinib]",no difference; also recorded: no differential effects,5-15%,,,,
Cc1[nH]c(/C=C2\C(=O)Nc3ccc(S(=O)(=O)N(C)c4cccc(Cl)c4)cc32)c(C)c1C(=O)N1CCN(C)CC1 [SU11274],had more sensitivity to the c-Met inhibitor SU11274; also recorded: c-CBL mutants had more sensitivity to c-Met inhibitor SU11274 than wild type c-CBL,,c-CBL mutants are more sensitive than wild type c-CBL,time- and dose-dependent reduced cell growth and induced G1 cell cycle arrest and apoptosis,reduced,silencing c-CBL-Wt significantly reduced the ability of SU11274 (also referred to as SU) to kill NSCLC cells
